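GI50 is the concentration that inhibits growth by half. TGI is the concentration that stops growth completely.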
Legend:
Experiment in all cases: NCI-60 cell line screen, 384-well format
MALME-3M melanoma = system: MALME-3M melanoma
SF-539 CNS = system: SF-539 CNS
A498 renal = system: A498 renal
HOP-62 NSCLC = system: HOP-62 NSCLC
MOLT-4 leukemia = system: MOLT-4 leukemia
MDA-MB-468 breast = system: MDA-MB-468 breast
SK-OV-3 ovarian = system: SK-OV-3 ovarian
U251 glioblastoma = system: U251 glioblastoma
T-47D breast = system: T-47D breast
OVCAR-5 ovarian = system: OVCAR-5 ovarian
HCC-2998 colon = system: HCC-2998 colon
HS 578T breast = system: HS 578T breast
NCI-H23 lung = system: NCI-H23 lung

Row | SMILES | GI50 (MALME-3M melanoma) [µM] | TGI (MALME-3M melanoma) [µM] | GI50 (SF-539 CNS) [µM] | TGI (SF-539 CNS) [µM] | GI50 (A498 renal) [µM] | TGI (A498 renal) [µM] | GI50 (HOP-62 NSCLC) [µM] | TGI (HOP-62 NSCLC) [µM] | GI50 (MOLT-4 leukemia) [µM] | TGI (MOLT-4 leukemia) [µM] | GI50 (MDA-MB-468 breast) [µM] | TGI (MDA-MB-468 breast) [µM] | GI50 (SK-OV-3 ovarian) [µM] | TGI (SK-OV-3 ovarian) [µM] | GI50 (U251 glioblastoma) [µM] | TGI (U251 glioblastoma) [µM] | GI50 (T-47D breast) [µM] | TGI (T-47D breast) [µM] | GI50 (OVCAR-5 ovarian) [µM] | TGI (OVCAR-5 ovarian) [µM] | also measured
1 | CC(C)N(CCCNC(=O)Nc1ccc(C(C)(C)C)cc1)C[C@H]1O[C@@H](n2ccc3c(N)ncnc32)[C@H](O)[C@@H]1O | 61.6 | > 100 | > 100 | > 100 | > 100 | > 100 | > 100 | > 100 | 44.7 | > 100 | 23.1 | > 100 | > 100 | > 100 | > 100 | > 100 | > 96.4 | > 100 | > 100 | > 100 | GI50 (HCC-2998 colon): > 100 µM; TGI (HCC-2998 colon): > 100 µM; GI50 (HS 578T breast): > 100 µM; TGI (HS 578T breast): > 100 µM; GI50 (NCI-H23 lung): > 100 µM; TGI (NCI-H23 lung): > 100 µM
2 | [2H]c1nc(C)nc([2H])c1-c1cc(NC[C@@H](C)c2cccc3c(C(=O)NC)ccnc23)ncn1 | > 100 | > 100 | > 100 | > 100 | > 100 | > 100 | > 100 | > 100 | > 85.7 | > 100 | > 100 | > 100 | > 100 | > 100 | > 100 | > 100 | > 100 | > 100 | > 100 | > 100 | GI50 (HCC-2998 colon): > 100 µM; TGI (HCC-2998 colon): > 100 µM; GI50 (HS 578T breast): > 100 µM; TGI (HS 578T breast): > 100 µM; GI50 (NCI-H23 lung): > 100 µM; TGI (NCI-H23 lung): > 100 µM
